Experimental data from patent publication US20030139446A1, “Preparation of pharmaceutical salts” (Schering Corporation, priority 2001, published 2003).
Where two headings read alike, the source gives them in different places.

Conditions: diastereomeric ratio 1,2 to 3,4 in solids 95:5

SMILES: O=C(O)c1ccccc1O [Salicylate]
- stability remark for salt solids (salt prepared in EtOH): stable
- stability remark for salt solids (salt prepared in iPrOAc): stable
